Laboratory results from publication PMC9226124, “Macrocycle-stabilization of its interaction with 14-3-3 increases plasma membrane localization and activity of CFTR” (Nature Communications, 2022).

Target: T1, 14-3-3β/CFTRpS753pS768 complex (Homo sapiens, UniProt P13569+P31946)
T1 construct: His6 (cleaved yes); made in house; peptide synthetic
Assay: Dose-response fluorescence polarization (FP) assay, compound titration
Type: binding
Conditions: for EC50: 14-3-3β 10 μM, labeled CFTRpS753pS768 100 nM; for FP signal: With 14-3-3
Protocol: The 14-3-3β concentration used for the FP screening assay was 10 μM (dashed line). c HTS FP assay of the Cyclenium library. The samples contain 100 nM of FITC-CFTR_pS753pS768 peptide, 10 μM 14-3-3β, and 50 μM compound. FC-A (100 µM) was added as a positive control and DMSO as the negative control. Hit compounds are defined as a polarization increase which is higher than 20% of the response of FC-A. Red squares are compounds that appeared positive in the negative control without 14-3-3. […] Background polarization was subtracted from all values, n = 3 technical replicates. Compounds selected for further analysis are indicated with an asterisk. e Polarization in the absence of 14-3-3. […] Source data are provided as a Source Data file. […]
The FITC-labeled peptides were dissolved in FP buffer (10 mM HEPES pH 7.4, 150 mM NaCl, 0.1% Tween20, 1 mg/mL BSA) to a final concentration of 100 nM or 10 nM. For the dose-response assays, a 14-3-3β concentration of 10 μM was used while titrating the compounds in a two-times dilution series and, for the other assays, a dilution series of 14-3-3β was made with constant concentration of compound. The dilution series were made in 384 Corning Black Round Bottom well plates and their polarization was measured with a Tecan Infinite F500 plate reader (ex. = 485 nm, em. = 535 nm). The method of fitting of the curves was: “log(agonist) vs. response – Variable slope (four parameters)” from GraphPad Prism. The equation is Y = Bottom + (Top-Bottom)/(1 + 10^((LogEC50-X)*HillSlope)).

T1 sequence (P31946 whole entry): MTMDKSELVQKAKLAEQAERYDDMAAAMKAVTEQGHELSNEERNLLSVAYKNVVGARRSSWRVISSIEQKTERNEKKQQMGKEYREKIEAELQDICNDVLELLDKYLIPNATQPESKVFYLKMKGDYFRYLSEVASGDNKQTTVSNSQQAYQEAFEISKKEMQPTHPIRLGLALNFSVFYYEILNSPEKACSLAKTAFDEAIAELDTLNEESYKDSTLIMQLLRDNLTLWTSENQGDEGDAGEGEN
T1 sequence (P13569 747-774 limits assumed): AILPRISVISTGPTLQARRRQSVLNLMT

EC50 | FP signal (compound 476.8 pM) | FP signal (compound 953.7 pM) | FP signal (compound 1.90735e-9 M) | FP signal (compound 3.8147e-9 M) | FP signal (compound 7.6294e-9 M) | FP signal (compound 1.52588e-8 M) | FP signal (compound 3.05176e-8 M) | FP signal (compound 6.10352e-8 M) | FP signal (compound 1.2207e-7 M) | FP signal (compound 2.44141e-7 M) | FP signal (compound 4.88281e-7 M) | FP signal (compound 9.76563e-7 M) | FP signal (compound 1.95313e-6 M) | FP signal (compound 3.90625e-6 M) | FP signal (compound 7.8125e-6 M) | FP signal (compound 1.5625e-5 M) | FP signal (compound 3.125e-5 M) | FP signal (compound 6.25e-5 M) | FP signal (compound 0.000125 M) | SMILES | other results
False positive | 5 | 5 | 4 | 7 | 5 | 4 | 4 | 7 | 6 | 5 | 6 | 7 | 8 | 14 | 28 | 52 | 90 | 137 | 191 | NCCCC1NCc2ccccc2Sc2ccccc2CNC(=O)C(Cc2c[nH]c3ccccc23)NC(=O)C(Cc2ccccc2)NC1=O (stereo not shown) [CY007345] | FP signal (compound 0.00025 M): 224; FP signal (compound 0.0005 M): 238; FP signal (compound 0.001 M): 248
False positive | 6 | 6 | 5 | 4 | 7 | 6 | 5 | 4 | 4 | 5 | 6 | 6 | 5 | 8 | 9 | 16 | 30 | 55 | 97 | NCCCCC1NCc2ccccc2Sc2ccccc2CNC(=O)C(Cc2cccc(Cl)c2)NC(=O)C(Cc2ccc(O)cc2)NC1=O (stereo not shown) [CY007288] | FP signal (compound 0.00025 M): 149; FP signal (compound 0.0005 M): 194; FP signal (compound 0.001 M): 224
